Data set [1] can be described thus: Treatment of patients with 4MU. It counts as in vivo. Particulars: 4×300 mg 4MU.
In data set [2] the test system is Huh7 liver cells. Briefly: Uptake of HA, ADAM10/17, Hck and MMPs into EV from HAS-induced Huh7 liver cells (Western blot). The format is cell-based. As to the method: (B): Hymecromone inhibits the uptake of HA into EV. […] Subsequently EV were purified from culture supernatant of Huh7 cells that were not treated for HAS induction (nil), from Huh7 cells that were treated for HAS induction (48 h; HAS-nd.) and from Huh7 cells that were treated for has induction and additionally incubated with Hymecromone (HAS-ind.+HyCr.). CD81 served as a loading control for pEV. Cell lysates from 293 T cells served as positive control for HA.
Subsequently EV were purified from culture supernatant of Huh7 cells that were not treated for HAS induction (nil), from Huh7 cells that were treated for HAS induction (48 h; HAS-ind.) and from Huh7 cells that were treated for HAS induction and additionally incubated with Hymecromone (HAS-nd.+HyCr.). Red arrows indicate the enzymatic active form of ADAM10 and ADAM17. CD81 served as a loading control for pEV. Cell lysates from 293 T cells served as positive control for HA.
In vitro a concentration of 300 μmol was sufficient to completely block the uploading of HA, Hck, and ADAM10 into vesicles. Whether these concentrations can be reached in circulation after oral uptake is not clear, as Hymecromone is efficiently metabolized in the […]. On the other hand PCpEV are generated by liver cells where Hymecromone is metabolized. […] Furthermore, there are likely inter-individual differences with respect to Hymecromone metabolization.
293Tcells were cultured in DMEM (Lonza), 10% (v/v) fetal bovine serum (FBS) with Penicillin-Strepto-mycin at 37° C., 5% CO2. For transient transfection, plasmids encoding the indicated proteins were transfected with Lipofectamine® LTX with Plus™ Reagent (Invitrogen) according to the manufacturer's instructions, or using the classical calcium phosphate procedure. Cells were used for experiments 24-72 h after transfection. Hymecromone was added at a final concentration of […] after transfection. For immunoblotting 20 μg of cellular protein lysate and 10 μg of EV lysate were loaded per lane. The latter corresponded to the production/secretion of 2-4 mio 293T cells within 48 h transfected and grown in one 10 cm dish.

For data set [3] the following is noted: cited from earlier work.
Data set [4] has as its system three isotypes of HAS. Particulars: cited from earlier work.
Data set [5] deals with Choriod Plexus. As to the kind of experiment: Accumulation of labeled EV in the choroid plexus after tail vein injection of 4MU-treated EV. The format is in vivo. Particulars: 72 h after injection of 4MU-treated EV into tail veins of a mouse, n=4/condition; FIG. 3. The protocol: (A) Accumulation/absence of accumulation of labeled pEV (red) in the Choriod Plexus 72 h after injection of 4MU-treated EV into tail veins of a mouse (n=4/condition). (B) IHC of a hippocampal section and quantification of EVc pos. cells. Statistical significance by one-way ANOVA and Tukey's test, ***p<0.005.

For the compound `Cc1cc(=O)oc2cc(O)ccc12` [Hymecromone, 4-methylumbelliferone], the “clinical outcome, Long COVID” value in data set [1] (32 old patient) is “fully recovered”. Further, the “clinical outcome, Alzheimer's disease (AD)-associated depression” value in data set [1] (patient) is “improved significantly”. For the same compound, the “uptake of ADAM10 and 17 and Hck into EV” value in data set [2] (Huh7 cells treated for HAS induction (48 h) and incubated with Hymecromone, FIG. 2) is “inhibits”. The “uptake of HA into EV” value in data set [2] (Huh7 cells treated for HAS induction (48 h) and incubated with Hymecromone, Western blot, FIG. 1B) is “inhibits”. The “concentration sufficient to completely block the uploading of HA, Hck, and ADAM10 into vesicles” value in data set [2] (in vitro) was found to be 300 µmol. The “incorporation of LMW-HA, ADAM10/17, Hck, and MMPs into extracellular vesicles” value in data set [2] (pharmacological inhibition of HAS activity) was “efficiently blocked”. The “serious side effects in clinical trials” value in data set [3] (at least 182 patients treated in clinical trials) was “no serious side effects”. Moreover, the “fraction of unchanged Hymecromone reaching systemic circulation” value in data set [3] (efficient metabolism by the liver) is listed as “low”. For the same compound, the “inhibition of the three isotypes of HAS” value in data set [4] was “efficiently inhibited”. For the same compound, the “EV upload and CP targeting” value in data set [5] is recorded as “blocks”.

(Values after patent US20250032444A1, “Prevention and treatment of depressive disorders and conditions promoted by protease containing plasma extracellular vesicles (PCpEV)” (Evexys Biotech Oy, priority 2021, published 2025).)
